Results on eleven molecules are retold here after ChEMBL document CHEMBL1201862, “PubChem BioAssay data set” (2004).

Among the test systems are NCI-H226; RXF 393; MDA-MB-435; CAKI-1; UO-31; MCF7; A549; HOP-62; SF-268; MOLT-4; SK-MEL-5; K562; MDA-N; HOP-92; HCT-15; UACC-62; SN12C; EKVX; SK-MEL-28.
Assay in all cases: inhibition of tumour cell growth, NCI panel, 48 h

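The compound was tested at five concentrations on cells cultured in 96-well plates, with a 48-hour exposure period. Here, GI50 denotes the concentration required for 50% inhibition of growth.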 Active and inactive are the calls of the source. Rule as the data show it: active = GI50 up to about 1.1 µM and inactive = higher.

Regarding `CC(=O)NC(=O)/N=C1\NCCC(=O)N1CCc1c[nH]c2ccccc12`, the GI50 with NCI-H226, with RXF 393, in the assay with MDA-MB-435, in the assay with CAKI-1, with UO-31 and in the assay on MCF7 was > 100 µM (inactive) each time. In addition, the GI50 in the assay on A549, with HOP-62, with SF-268, with MOLT-4, in the assay on SK-MEL-5 and with K562 was > 100 µM (inactive) in each case. Further, the GI50 was > 100 µM (inactive) in the assay with MDA-N; > 100 µM (inactive) with HOP-92; > 100 µM in the assay with HCT-15; > 100 µM (inactive) in the assay with UACC-62; > 100 µM (inactive) in the assay on SN12C; > 100 µM (inactive) in the assay with EKVX. In the assay on SK-MEL-28, the GI50 was > 100 µM (inactive).
Take `CCOC(=O)C1(Cc2ccccc2)C=CN(C(=O)c2ccccc2)C=C1`: the GI50 was > 100 µM (inactive) with NCI-H226; 27.5 µM (inactive) in the assay on RXF 393; 29.2 µM (inactive) in the assay on MDA-MB-435; 38.5 µM (inactive) with CAKI-1; 45.8 µM (inactive) with UO-31; 30.4 µM (inactive) in the assay with MCF7. The GI50 with A549 was 42.4 µM (inactive); in the assay on HOP-62 it was 45.9 µM (inactive); in the assay with SF-268, 47.4 µM (inactive); with MOLT-4 it was 20.6 µM (inactive); in the assay with SK-MEL-5, 15.1 µM (inactive); with K562, 27 µM (inactive). In addition, the GI50 in the assay on MDA-N is 24.3 µM (inactive); in the assay on HOP-92, 23.4 µM (inactive); in the assay with HCT-15 it was 32.1 µM; with UACC-62, 20.2 µM (inactive); in the assay on SN12C it was 29.6 µM (inactive); with EKVX it was 32.9 µM (inactive). For the same molecule, the GI50 in the assay with SK-MEL-28 is 30.8 µM (inactive).
Take `N=c1oc2ccccc2cc1-c1nc2ccccc2[nH]1`: the GI50 in the assay on NCI-H226 was > 100 µM (inactive); in the assay with RXF 393 it was 38.9 µM (inactive); with MDA-MB-435, 15.5 µM (inactive); with CAKI-1, 43.9 µM (inactive); with UO-31, 12.1 µM (inactive); with MCF7, 19.9 µM (inactive). Further, the GI50 is 74.1 µM (inactive) with A549; 53 µM (inactive) in the assay with HOP-62; 64.9 µM (inactive) in the assay on SF-268; 10.1 µM (inactive) in the assay with MOLT-4; 20.8 µM (inactive) in the assay with SK-MEL-5; 18.9 µM (inactive) with K562. Also, the GI50 is 17.3 µM (inactive) with MDA-N; 2.23 µM (inactive) in the assay with HOP-92; 31.5 µM in the assay with HCT-15; 41.4 µM (inactive) in the assay on UACC-62; > 100 µM (inactive) in the assay with SN12C; 18.2 µM (inactive) in the assay with EKVX. In the assay on SK-MEL-28, the GI50 was 89.9 µM (inactive).
On to `O=C(Cn1ccc(=O)[nH]c1=O)Nc1ccc(C(=O)O)c(O)c1`, for which the GI50 in the assay on NCI-H226, with RXF 393, with MDA-MB-435, in the assay on CAKI-1, with UO-31 and in the assay with MCF7 was > 100 µM (inactive) in each case. The GI50 was > 100 µM (inactive) in the assay on A549; 26.2 µM (inactive) in the assay with HOP-62; > 100 µM (inactive) with SF-268; > 100 µM (inactive) in the assay with MOLT-4; > 100 µM (inactive) in the assay on SK-MEL-5; > 100 µM (inactive) in the assay on K562. Further, the GI50 in the assay on MDA-N was > 100 µM (inactive); in the assay on HOP-92 it was > 100 µM (inactive); with HCT-15 it was > 100 µM; in the assay on UACC-62, > 100 µM (inactive); in the assay with SN12C it was > 100 µM (inactive); in the assay with EKVX, > 100 µM (inactive). Further, the GI50 with SK-MEL-28 was > 100 µM (inactive).
Consider `CN(C)N1C(=O)SCC(c2ccccc2)(c2ccccc2)C1=O`, for which the GI50 with NCI-H226 was > 100 µM (inactive); in the assay on RXF 393, > 100 µM (inactive); in the assay with MDA-MB-435 it was > 100 µM (inactive); with CAKI-1, > 100 µM (inactive); in the assay with UO-31, > 100 µM (inactive); in the assay on MCF7, 54.8 µM (inactive). Besides, the GI50 in the assay with A549 was 68.2 µM (inactive); with HOP-62, > 100 µM (inactive); with SF-268, > 100 µM (inactive); with MOLT-4, > 100 µM (inactive); in the assay on SK-MEL-5, > 100 µM (inactive); in the assay on K562 it was 87.7 µM (inactive). Further, the GI50 in the assay on MDA-N was > 100 µM (inactive); in the assay on HOP-92 it was > 100 µM (inactive); in the assay on HCT-15 it was > 100 µM; with UACC-62, 56.8 µM (inactive); in the assay with SN12C, > 100 µM (inactive); in the assay with EKVX, > 100 µM (inactive). In addition, the GI50 with SK-MEL-28 is > 100 µM (inactive).
For `CCOC(=O)CC[C@H](N)C(=O)N[C@H](Cc1ccc(N(CCCl)CCCl)cc1)C(=O)OCC`, the GI50 is 7.76 µM (inactive) in the assay with NCI-H226; 0.879 µM (active) in the assay on RXF 393; 24.9 µM (inactive) with MDA-MB-435; 0.154 µM (active) with CAKI-1; 0.419 µM (active) in the assay on UO-31; 1.21 µM (inactive) with MCF7. Moreover, the GI50 in the assay on A549 is 3.54 µM (inactive); with HOP-62 it was 2.26 µM (inactive); with SF-268, 0.414 µM (active); in the assay with MOLT-4 it was 1.18 µM (inactive); with SK-MEL-5 it was 45.3 µM (inactive); in the assay on K562 it was > 34.4 µM (inactive). Further, the GI50 with MDA-N is 16.1 µM (inactive); in the assay with HOP-92, 0.561 µM (active); in the assay on HCT-15, 4.39 µM; in the assay with UACC-62, 1.51 µM (inactive); in the assay on SN12C, 1.79 µM (inactive); in the assay with EKVX, 6.03 µM (inactive). In addition, the GI50 in the assay on SK-MEL-28 is 25.8 µM (inactive).
Take `O=C1c2ccccc2C(=O)c2c1ccc1conc21`: the GI50 with NCI-H226 was 7.06 µM (inactive); in the assay with RXF 393 it was 3.08 µM (inactive); in the assay with MDA-MB-435, 0.605 µM (active); with CAKI-1 it was 4.22 µM (inactive); in the assay with UO-31 it was 4.33 µM (inactive); in the assay with MCF7, 1.03 µM (active). The GI50 in the assay with A549 is 4.95 µM (inactive); in the assay on HOP-62 it was 4.3 µM (inactive); with SF-268, 2.56 µM (inactive); with MOLT-4, 0.632 µM (active); in the assay on SK-MEL-5 it was 1.92 µM (inactive); in the assay with K562, 1.85 µM (inactive). The GI50 with MDA-N is 0.392 µM (active); in the assay with HOP-92, 1.07 µM (active); in the assay on HCT-15, 2.75 µM; in the assay on UACC-62 it was 2.45 µM (inactive); in the assay with SN12C, 1.87 µM (inactive); in the assay with EKVX it was 2.08 µM (inactive). In addition, the GI50 in the assay with SK-MEL-28 was 3.41 µM (inactive).
Take `Cc1cn(C2CC(O)C(COC(N)=O)O2)c(=O)[nH]c1=O` (stereo unspecified): the GI50 in the assay with NCI-H226, in the assay with RXF 393, in the assay on MDA-MB-435, with CAKI-1, with UO-31 and in the assay on MCF7 was > 100 µM (inactive) throughout. In addition, the GI50 in the assay with A549, in the assay on HOP-62, with SF-268, in the assay on MOLT-4, in the assay on SK-MEL-5 and in the assay on K562 was > 100 µM (inactive) in each case. Besides, the GI50 in the assay on MDA-N was > 100 µM (inactive); in the assay on HOP-92, > 100 µM (inactive); with HCT-15 it was > 100 µM; with UACC-62 it was > 100 µM (inactive); in the assay with SN12C it was > 100 µM (inactive); in the assay with EKVX, > 100 µM (inactive). Further, in the assay with SK-MEL-28, the GI50 is > 100 µM (inactive).
On to `O=C1CC(c2ccccc2)C2(C(=O)NC(=S)NC2=O)C(c2ccccc2)C1` (stereo unspecified), for which the GI50 in the assay with NCI-H226 was > 75 µM (inactive); with RXF 393, > 75 µM (inactive); in the assay on MDA-MB-435, 55.8 µM (inactive); in the assay on CAKI-1 it was > 75 µM (inactive); in the assay on UO-31, > 75 µM (inactive); in the assay with MCF7, > 75 µM (inactive). The GI50 was > 75 µM (inactive) in the assay on HOP-62; > 75 µM (inactive) in the assay on SF-268; 27.3 µM (inactive) in the assay with MOLT-4; > 75 µM (inactive) with SK-MEL-5; > 75 µM (inactive) in the assay with K562; > 75 µM (inactive) in the assay with MDA-N. The GI50 is 13.3 µM (inactive) in the assay with HOP-92; > 75 µM in the assay on HCT-15; > 75 µM (inactive) in the assay with UACC-62; > 75 µM (inactive) in the assay on SN12C; > 75 µM (inactive) in the assay on EKVX; > 75 µM (inactive) in the assay with SK-MEL-28.
As to `CCCCC(=O)NC1(c2cc3ccccc3s2)CCCCC1`, the GI50 in the assay with NCI-H226 was > 100 µM (inactive); in the assay on RXF 393 it was > 100 µM (inactive); with MDA-MB-435, > 100 µM (inactive); in the assay with CAKI-1, > 100 µM (inactive); in the assay with UO-31, > 100 µM (inactive); with MCF7, 85.9 µM (inactive). The GI50 in the assay on A549, in the assay with HOP-62, in the assay with SF-268, in the assay on SK-MEL-5, with K562 and in the assay with MDA-N was > 100 µM (inactive) throughout. The GI50 was > 100 µM (inactive) with HOP-92; > 100 µM in the assay on HCT-15; 62.1 µM (inactive) in the assay on UACC-62; > 100 µM (inactive) in the assay with SN12C; > 100 µM (inactive) with EKVX; > 100 µM (inactive) with SK-MEL-28.
Regarding `NC(CSCc1ccccc1)C(=O)O` (stereo unspecified), the GI50 in the assay on NCI-H226, in the assay on RXF 393, in the assay with MDA-MB-435, in the assay with CAKI-1, in the assay with UO-31 and in the assay with MCF7 was > 100 µM (inactive) throughout. The GI50 with A549, in the assay on HOP-62, in the assay on SF-268, with SK-MEL-5, with K562 and with MDA-N was > 100 µM (inactive) each time. The GI50 is > 100 µM (inactive) in the assay on HOP-92; > 100 µM in the assay with HCT-15; > 100 µM (inactive) in the assay with UACC-62; > 100 µM (inactive) with SN12C; > 100 µM (inactive) in the assay with EKVX; > 100 µM (inactive) with SK-MEL-28.
